Measured values published in the supplement of paper PMC6335503.

Legend:
Test in all cases: cell viability, percent of DMSO control (CellTiter-Glo); higher = more viable cells
Settings in all cases: 72 h
[1] = test system: DFTD cell line T1 (06/2887)
Method: (§1)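 Eight-point dose titration of 41 screen hits in triplicate wells on four Tasmanian devil DFTD tumour cell lines (T1-T4) and devil fibroblasts, 384-well plates. Viability was read by CellTiter-Glo (ATP) after 72 h at 37 °C. Percent of control per plate: DMSO wells = 100%, positive-control wells = 0%.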

[2] = test system: DFTD cell line T2 (05/2569)
Method: as §1

[3] = test system: DFTD cell line T3 (06/0368)
Method: as §1

[4] = test system: DFTD cell line T4 (07/0192)
Method: as §1

CN(C)C/C=C/C(=O)Nc1cc2c(Nc3ccc(F)c(Cl)c3)ncnc2cc1O[C@H]1CCOC1 [Afatinib (BIBW2992)]
cell viability [%]
Settings	0.00617 µM	0.0185 µM	0.0556 µM	0.166667 µM	0.5 µM	1.5 µM	4.5 µM	13.5 µM
[1]	102	58.8	29	19	24.5	18.8	4.12	1.43
[2]	112	89.2	72.7	39.8	43.4	33.4	30.8	5.92
[3]	105	84.4	50.4	34	31.7	31.5	24	6.87
[4]	98.9	81.1	46.3	18.2	13.9	18.8	5.93	1.47

CC1(C)CC(=O)C2=C(C1)NC(=S)NC2c1cccc(O)c1 (configuration not stated) [Dimethylenastron]
cell viability [%]
Settings	0.00617 µM	0.0185 µM	0.0556 µM	0.166667 µM	0.5 µM	1.5 µM	4.5 µM	13.5 µM
[1]	113	126	115	102	70.9	50.1	42.5	33.8
[2]	107	130	117	104	92.3	79.2	73.7	71.3
[3]	101	119	102	110	108	94.4	103	86.2
[4]	118	92.6	106	105	93.9	81.3	62.2	61.7

Cn1nc(-c2ccccn2)nc2c(=O)n(C)c(=O)nc1-2
cell viability [%]
Settings	0.00617 µM	0.0185 µM	0.0556 µM	0.166667 µM	0.5 µM	1.5 µM	4.5 µM	13.5 µM
[1]	153	70.2	125	132	135	81.7	-6.25	0.0591
[2]	135	102	104	124	132	84.5	-4.38	-0.281
[3]	117	94.9	119	126	107	72.9	-7.67	-1.39
[4]	141	92.9	114	109	118	74.2	-7.19	0.999

CCOc1cc2ncc(C#N)c(Nc3ccc(OCc4ccccn4)c(Cl)c3)c2cc1NC(=O)/C=C/CN(C)C [Neratinib(HKI-272)]
cell viability [%]
Settings	0.00617 µM	0.0185 µM	0.0556 µM	0.166667 µM	0.5 µM	1.5 µM	4.5 µM	13.5 µM
[1]	97.8	92.2	125	90.5	50.7	29	29.2	32.5
[2]	97	98	154	119	93.3	45.2	45.7	39.1
[3]	92	102	119	96.1	92.2	39.8	42.4	36.5
[4]	99.8	88.3	114	93.5	62.4	22.9	25.4	18.8

CNC(=O)CN1CCC(Oc2cc3c(Nc4cccc(Cl)c4F)ncnc3cc2OC)CC1 [AZD8931 (Sapitinib)]
cell viability [%]
Settings	0.00617 µM	0.0185 µM	0.0556 µM	0.166667 µM	0.5 µM	1.5 µM	4.5 µM	13.5 µM
[1]	116	104	84	37.9	24.9	22.8	19.1	21.6
[2]	123	111	98.5	62.1	46.5	27	19.7	24.2
[3]	112	95.2	102	55.9	43.4	29	24.9	32.6
[4]	107	111	80.8	59.7	31.9	20.9	14	8.86

Cc1cc(Nc2ncnc3ccc(NC4=NC(C)(C)CO4)cc23)ccc1Oc1ccn2ncnc2c1 [Irbinitinib(ARRY-380; ONT-380)]
cell viability [%]
Settings	0.00617 µM	0.0185 µM	0.0556 µM	0.166667 µM	0.5 µM	1.5 µM	4.5 µM	13.5 µM
[1]	113	111	94.9	89.7	41.5	30.3	33	33.4
[2]	102	90.6	98.1	95.7	65.7	45.7	50.6	42.5
[3]	112	116	111	98.9	67.1	54.9	45.3	48.6
[4]	106	109	105	92.6	60.1	46.2	43.5	36.6

COCCn1c2c([n+](Cc3cnccn3)c1C)C(=O)c1ccccc1C2=O.[Br-] [YM155]
cell viability [%]
Settings	0.00617 µM	0.0185 µM	0.0556 µM	0.166667 µM	0.5 µM	1.5 µM	4.5 µM	13.5 µM
[1]	106	104	109	80.8	38.4	6.92	1.97	-9.67
[2]	106	87.2	111	91.9	42.4	4.91	-0.0383	-10.8
[3]	111	95.3	105	89.3	22	5.85	4.15	-5.27
[4]	107	91.5	86.1	32.4	7.29	-1.02	5.5	-4.07

C=CC(=O)Nc1cc2c(Nc3ccc(F)c(Cl)c3)ncnc2cc1OCCCN1CCOCC1 [Canertinib (CI-1033)]
cell viability [%]
Settings	0.00617 µM	0.0185 µM	0.0556 µM	0.166667 µM	0.5 µM	1.5 µM	4.5 µM	13.5 µM
[1]	118	106	109	98.1	42.6	18.3	18.2	8.82
[2]	120	106	116	98	91.1	33.5	33.7	13.8
[3]	92.6	110	113	110	89	49.7	32.5	38.9
[4]	104	107	107	107	86.1	39.8	24	21

CS(=O)(=O)CCNCc1ccc(-c2ccc3ncnc(Nc4ccc(OCc5cccc(F)c5)c(Cl)c4)c3c2)o1.Cc1ccc(S(=O)(=O)O)cc1
cell viability [%]
Settings	0.00617 µM	0.0185 µM	0.0556 µM	0.166667 µM	0.5 µM	1.5 µM	4.5 µM	13.5 µM
[1]	127	119	87.5	102	46.3	28.1	24	31.8
[2]	109	114	98.2	117	83.3	44.3	35.8	32.3
[3]	96	105	99.2	97.4	63	54.1	42.2	40.8
[4]	102	123	101	91.8	62.7	46.1	22.1	28.7

O=C(/C=C/c1cccc(S(=O)(=O)Nc2ccccc2)c1)NO [RLM 2-89]
cell viability [%]
Settings	0.000617 µM	0.00185 µM	0.00556 µM	0.0167 µM	0.05 µM	0.15 µM	0.45 µM	1.35 µM
[1]	130	115	116	113	114	52.6	20.5	17.4
[2]	110	96.3	118	106	125	82.3	28.8	20.7
[3]	120	103	116	121	128	77.7	32.4	28.9
[4]	121	109	87.9	125	123	83.5	38.1	19.1

C#Cc1cccc(Nc2ncnc3cc(OCCOC)c(OCCOC)cc23)c1.Cl [Erlotinib hydrochloride]
cell viability [%]
Settings	0.00617 µM	0.0185 µM	0.0556 µM	0.166667 µM	0.5 µM	1.5 µM	4.5 µM	13.5 µM
[1]	138	126	104	87.3	86.4	38.1	29.1	14.2
[2]	124	142	118	90.4	98.83	56.3	33.7	18.2
[3]	121	105	122	93.5	87.4	60.8	47.1	30.7
[4]	117	114	119	99.9	104	61.7	47.2	19.7
